In ChEMBL document CHEMBL3853304, “Synthesis and biological screening for cytotoxic activity of N-substituted indolines and morpholines” (Eur J Med Chem, 2016):
Calls of active or inactive are those of the source. The rule behind the calls is not given here.

How the values were obtained:
[1] = (§1) Cytotoxicity against human U2OS cells assessed as cell death at 100 uM after 24 hrs by trypan blue exclusion assay; assay type: functional
[2] = Induction of apoptosis in HEK293 cells at IC50 after 24 hrs by Alexa fluor-Annexin V/DAPI staining-based epifluorescence microscopic analysis; assay type: cell-based; settings: human, hek293, 24 h
U2OS [3] = experiment: Inhibition of cell migration in human U2OS cells assessed as disturbed monolayer at IC50 measured after 10 hrs by light microscopic analysis; assay type: functional, cell-based
[4] = Induction of apoptosis in HEK293 cells assessed as increase in intracellular mitochondrial Ca2+ levels at IC50 by ratiometric pericam-mt based fluorescence microscopic analysis; assay type: cell-based; settings: human
U2OS [5] = experiment: Inhibition of cell migration in human U2OS cells assessed as detached adherent cells at IC50 measured after 10 hrs by light microscopic analysis; assay type: functional, cell-based
[6] = (§2) Cytotoxicity against human U2OS cells assessed as reduction in cell viability after 24 hrs by trypan blue exclusion assay; assay type: functional, cell-based
U2OS [7] = experiment: as §2; assay type: functional, cell-based
U2OS [8] = experiment: Induction of apoptosis in human U2OS cells at IC50 after 24 hrs by Alexa fluor-Annexin V/DAPI staining-based epifluorescence microscopic analysis; assay type: functional
U2OS [9] = experiment: Inhibition of cell migration in human U2OS cells at IC50 after 2 to 10 hrs by scratch migration assay; assay type: functional, cell-based
U2OS [10] = experiment: Inhibition of cell migration in human U2OS cells at IC50 measured after 2 hrs by scratch migration assay; assay type: functional
U2OS [11] = experiment: Induction of apoptosis in human U2OS cells assessed as necrotic cells at IC50 after 24 hrs by propidium iodide based epifluorescence microscopic analysis (reference value: 3 %); assay type: functional
U2OS [12] = experiment: Induction of apoptosis in human U2OS cells assessed as increase in intracellular mitochondrial Ca2+ levels at IC50 by ratiometric pericam-mt based fluorescence microscopic analysis; assay type: functional, cell-based
U2OS [13] = experiment: Induction of apoptosis in human U2OS cells assessed as apoptotic cells at IC50 after 48 hrs by propidium iodide based epifluorescence microscopic analysis (reference value: 2 %); assay type: functional
U2OS [14] = experiment: Induction of apoptosis in human U2OS cells assessed as necrotic cells at IC50 after 48 hrs by propidium iodide based epifluorescence microscopic analysis (reference value: 3 %); assay type: functional
U2OS [15] = experiment: Inhibition of cell migration in human U2OS cells at IC50 measured after 10 hrs by scratch migration assay; assay type: functional
U2OS [16] = experiment: Induction of apoptosis in human U2OS cells assessed as apoptotic cells at IC50 after 24 hrs by propidium iodide based epifluorescence microscopic analysis (reference value: 2 %); assay type: functional
U2OS [17] = experiment: as §1; assay type: functional

**Q.** For C(=C\C(c1ccccn1)N1CCOCC1)/c1ccccc1 (stereo unspecified), which Activity [1] is on record?
**A.** Its Activity is 20%.

**Q.** Which Activity [1] does the source give for Oc1ccccc1C(c1ccccc1)N1CCOCC1 (stereo unspecified) here?
**A.** Its Activity is 20%.

**Q.** For Cc1ccc(C(c2ccccc2O)N2CCc3ccccc32)cc1 (stereo unspecified), which Activity [1] is on record?
**A.** Its Activity is 20%.

**Q.** Which Activity [1] does the source give for COc1ccc(C(c2ccccc2O)N2CCOCC2)cc1 (stereo unspecified) here?
**A.** Its Activity is 20%.

**Q.** For Cc1ccc(C(c2cc([N+](=O)[O-])ccc2O)N2CCc3ccccc32)cc1 (stereo unspecified), which Activity [1] is on record?
**A.** Its Activity is over 90%.

**Q.** And the Activity [2]?
**A.** Its Activity is 30%.

**Q.** What about the inhibition (U2OS [3]) of the same molecule?
**A.** Its inhibition is “Active”.

**Q.** What about the Activity [4] of the same molecule?
**A.** The Activity was “Toxic”.

**Q.** And the inhibition (U2OS [5])?
**A.** The inhibition was “Active”.

**Q.** What about the IC50 [6] of the same molecule?
**A.** Its IC50 is 74 µM.

**Q.** And the Activity (U2OS [7])?
**A.** Its Activity is “Dose-dependent effect”.

**Q.** What about the Activity (U2OS [8]) of the same molecule?
**A.** Its Activity is 43%.

**Q.** And the inhibition (U2OS [9])?
**A.** Its inhibition is “Active”.

**Q.** What about the “inhibition (INH)” value (U2OS [10]) of the same molecule?
**A.** Its value is 7%.

**Q.** And the Activity (U2OS [11])?
**A.** Its Activity is 12%.

**Q.** What about the Activity (U2OS [12]) of the same molecule?
**A.** The Activity was “Active”.

**Q.** And the Activity (U2OS [13])?
**A.** Its Activity is 23%.

**Q.** What about the Activity (U2OS [14]) of the same molecule?
**A.** Its Activity is 15%.

**Q.** What about the “inhibition (INH)” value (U2OS [15]) of the same molecule?
**A.** The value was 32%.

**Q.** And the Activity (U2OS [16])?
**A.** The Activity was 17%.

**Q.** Which Activity [1] does the source give for C=Cc1ccc(C(c2ccccc2O)N2CCOCC2)cc1 (stereo unspecified) here?
**A.** Its Activity is 20%.

**Q.** With Oc1ccccc1C(/C=C/c1ccccc1)N1CCOCC1 (stereo unspecified) as the molecule, how does the Activity [1] read?
**A.** Its Activity is 20%.

**Q.** For Oc1ccccc1C(c1ccccc1)N1CCc2ccccc21 (stereo unspecified), which Activity [1] is on record?
**A.** The Activity was over 90%.

**Q.** What about the Activity (U2OS [7]) of the same molecule?
**A.** Its Activity is “Active”.

**Q.** Which Activity [1] does the source give for Oc1ccccc1C(c1ccc(Cl)cc1)N1CCOCC1 (stereo unspecified) here?
**A.** The Activity was 20%.

**Q.** Which Activity (U2OS [17]) does the source give for SODIUM ORTHOVANAD here?
**A.** The Activity was 30%.
